From ChEMBL document CHEMBL6114967, “Design and synthesis of novel sulfur-substituted triptolide with the ability to induce autophagy through inhibition of SRSF1 expression” (Eur J Med Chem, 2025)
Active and inactive are the calls of the source. The rule behind the calls is not given here.

Key:
HGC-27 [1] = experiment: Downregulation of SRSF1 mRNA expression in human HGC-27 cells incubated for 24 hrs by SYBR green dye based RT-qPCR analysis; format: functional, cell-based; settings: dose 0.5-2 µM
AGS [2] = experiment: Downregulation of SRSF1 mRNA expression in human AGS cells incubated for 24 hrs by SYBR green dye based RT-qPCR analysis; format: functional, cell-based; settings: dose 0.5-2 µM
HepG2 = experiment: Antiproliferative activity against human HepG2 cells assessed as inhibition of cell proliferation incubated for 72 hrs by MTT assay; format: functional, cell-based; settings: HepG2, 72 h
BGC-823 = experiment: Antiproliferative activity against human BGC-823 cells assessed as inhibition of cell proliferation incubated for 72 hrs by MTT assay; format: functional, cell-based; settings: BGC-823, 72 h
A549 = experiment: Antiproliferative activity against human A549 cells assessed as inhibition of cell proliferation incubated for 72 hrs by MTT assay; format: functional, cell-based; settings: A549, 72 h
[3] = Antiproliferative activity against human LO2 cells assessed as inhibition of cell proliferation incubated for 72 hrs by MTT assay; format: toxicity, cell-based, L02
[4] = Selectivity index, ratio of IC50 for antiproliferative activity against human LO2 cells to IC50 for antiproliferative activity against human HGC-27 cells; format: toxicity, cell-based; settings: LO2 cells and HGC-27 cells, read-out: Ratio IC50
[5] = Selectivity index, ratio of IC50 for antiproliferative activity against human LO2 cells to IC50 for antiproliferative activity against human AGS cells; format: cell-based; settings: LO2 cells and AGS cells, read-out: Ratio IC50
HGC-27 [6] = experiment: Induction of apoptosis in human HGC-27 cells assessed as early apoptotic cells at 0.5 uM incubated for 48 hrs by annexin V-FITC and PI staining based flow cytometry analysis (reference value: 3.13%); format: functional
HGC-27 [7] = experiment: Induction of apoptosis in human HGC-27 cells assessed as late apoptotic cells at 0.5 uM incubated for 48 hrs by annexin V-FITC and PI staining based flow cytometry analysis (reference value: 5.02%); format: functional
HGC-27 [8] = experiment: Induction of apoptosis in human HGC-27 cells assessed as necrotic cells at 0.5 uM incubated for 48 hrs by annexin V-FITC and PI staining based flow cytometry analysis (reference value: 0.062%); format: functional
HGC-27 [9] = experiment: Induction of apoptosis in human HGC-27 cells assessed as late apoptotic cells at 1 uM incubated for 48 hrs by annexin V-FITC and PI staining based flow cytometry analysis (reference value: 5.02%); format: functional
HGC-27 [10] = experiment: Induction of apoptosis in human HGC-27 cells assessed as necrotic cells at 1 uM incubated for 48 hrs by annexin V-FITC and PI staining based flow cytometry analysis (reference value: 0.062%); format: functional
HGC-27 [11] = experiment: Induction of apoptosis in human HGC-27 cells assessed as early apoptotic cells at 2 uM incubated for 48 hrs by annexin V-FITC and PI staining based flow cytometry analysis (reference value: 3.13%); format: functional
HGC-27 [12] = experiment: Induction of apoptosis in human HGC-27 cells assessed as late apoptotic cells at 2 uM incubated for 48 hrs by annexin V-FITC and PI staining based flow cytometry analysis (reference value: 5.02%); format: functional
AGS [13] = experiment: Induction of apoptosis in human AGS cells assessed as viable cells at 0.5 uM incubated for 48 hrs by annexin V-FITC and PI staining based flow cytometry analysis (reference value: 92.0%); format: functional; settings: read-out: Activity
AGS [14] = experiment: Induction of apoptosis in human AGS cells assessed as necrotic cells at 0.5 uM incubated for 48 hrs by annexin V-FITC and PI staining based flow cytometry analysis (reference value: 0.44%); format: functional
AGS [15] = experiment: Induction of apoptosis in human AGS cells assessed as viable cells at 1 uM incubated for 48 hrs by annexin V-FITC and PI staining based flow cytometry analysis (reference value: 92.0%); format: functional; settings: read-out: Activity
AGS [16] = experiment: Induction of apoptosis in human AGS cells assessed as early apoptotic cells at 2 uM incubated for 48 hrs by annexin V-FITC and PI staining based flow cytometry analysis (reference value: 4.44%); format: functional
AGS [17] = experiment: Induction of apoptosis in human AGS cells assessed as late apoptotic cells at 2 uM incubated for 48 hrs by annexin V-FITC and PI staining based flow cytometry analysis (reference value: 3.15%); format: functional
AGS [18] = experiment: Induction of apoptosis in human AGS cells assessed as necrotic cells at 2 uM incubated for 48 hrs by annexin V-FITC and PI staining based flow cytometry analysis (reference value: 0.44%); format: functional
HGC-27 [19] = experiment: Induction of apoptosis in human HGC-27 cells assessed as increase in cleaved PARP expression at 0.5 to 2 uM incubated overnight by Western blotting analysis; format: functional, cell-based; settings: dose 0.5-2 µM
HGC-27 [20] = experiment: Induction of apoptosis in human HGC-27 cells assessed as increase in cleaved caspase-3 expression at 0.5 to 2 uM incubated overnight by Western blotting analysis; format: functional, cell-based; settings: dose 0.5-2 µM
HGC-27 [21] = experiment: Induction of cell cycle arrest in human HGC-27 cells assessed as increase in P21 expression at 0.5 to 2 uM by Western blotting analysis; format: functional, cell-based; settings: dose 0.5-2 µM
AGS [22] = experiment: Induction of cell cycle arrest in human AGS cells assessed as increase in P21 expression at 0.5 to 2 uM by Western blotting analysis; format: functional, cell-based; settings: dose 0.5-2 µM
AGS [23] = experiment: Induction of cell cycle arrest in human AGS cells assessed as reduction in CyclinE2 expression at 0.5 to 2 uM by Western blotting analysis; format: functional, cell-based; settings: dose 0.5-2 µM
HGC-27 [24] = experiment: Antitumor activity against human HGC-27 cells xenografted in male BALB/c nude mouse assessed as tumor growth inhibition at 25 mg/kg, ip administered every day for 15 days relative to control; format: functional; settings: HGC-27, 360 h, time 15 day, read-out: TGI
HGC-27 [25] = experiment: Antitumor activity against human HGC-27 cells xenografted in male BALB/c nude mouse assessed as tumor growth inhibition at 100 mg/kg, ip administered every day for 15 days relative to control; format: functional; settings: HGC-27, 360 h, time 15 day, read-out: TGI
[26] = Toxicity in male BALB/c nude mouse assessed as change in body weight at 25 to 100 mg/kg, ip administered daily and measured after 15 days; format: organism-based; settings: in vivo, 360 h, dose 25-100 mg/kg, time 15 day
HGC-27 [27] = experiment: Downregulation of RNA splicing pathway in human HGC-27 cells at 2 uM incubated for 24 hrs by KEGG enrichment analysis; format: functional, cell-based
HGC-27 [28] = experiment: Downregulation of SRSF1 protein level in human HGC-27 cells at 0.5 to 2 uM by Western blotting analysis; format: functional, cell-based; settings: dose 0.5-2 µM
AGS [29] = experiment: Downregulation of SRSF1 protein level in human AGS cells at 0.5 to 2 uM by Western blotting analysis; format: functional, cell-based; settings: dose 0.5-2 µM
HGC-27 [30] = experiment: Induction of autophagy in human HGC-27 cells assessed as upregulation of Beclin1 protein level at 0.5 to 2 uM incubated for 48 hrs by Western blotting analysis; format: functional, cell-based; settings: dose 0.5-2 µM
AGS [31] = experiment: Induction of autophagy in human AGS cells assessed as upregulation of Beclin1 protein level at 0.5 to 2 uM incubated for 48 hrs by Western blotting analysis; format: functional, cell-based; settings: dose 0.5-2 µM
[32] = Toxicity in male ICR mouse assessed as animal death at 1 g/Kg, ip measured after 7 days; format: organism-based; settings: in vivo, 1000 mg/kg, 168 h, time 7 day
[33] = Acute toxicity in male ICR mouse assessed as lethal dose administered as ip; settings: in vivo

**Q.** Which results are given for `CC(C)[C@]12O[C@H]1[C@@H]1O[C@]13[C@]1(O[C@H]1C[C@H]1C4=C(CC[C@@]13C)C(=S)OC4)[C@@H]2O`?
**A.** Activity (HGC-27 [1]): Dose-dependent-effect; Activity (AGS [2]): Dose-dependent-effect; IC50 (HepG2): 0.35 µM; IC50 (BGC-823): 1.33 µM; IC50 (A549): 6.93 µM; IC50 at 72 h [3]: 2.86 µM; selectivity ratio [4]: 6.56; selectivity ratio [5]: 4.55; Activity (HGC-27 [6]): 3.5%; Activity (HGC-27 [7]): 10.5%; Activity (HGC-27 [8]): 0.13%; Activity (HGC-27 [9]): 9.29%; Activity (HGC-27 [10]): 0.11%; Activity (HGC-27 [11]): 28.1%; Activity (HGC-27 [12]): 19.7%; viability at 0.5 µM (AGS [13]): 82.3%; Activity (AGS [14]): 0.55%; viability at 1 µM (AGS [15]): 65.1%; Activity (AGS [16]): 31.6%; Activity (AGS [17]): 31.7%; Activity (AGS [18]): 0.82%; Activity (HGC-27 [19]): Active; Activity (HGC-27 [20]): Active; Activity (HGC-27 [21]): Active; Activity (AGS [22]): Active; Activity (AGS [23]): Active; inhibition in vivo at 25 mg/kg (HGC-27 [24]): 63.7%; inhibition in vivo at 100 mg/kg (HGC-27 [25]): 82.7%; Activity [26]: Non-toxic; Activity (HGC-27 [27]): Active; Activity (HGC-27 [28]): Active; Activity (AGS [29]): Active; Activity (HGC-27 [30]): Active; Activity (AGS [31]): Active; Activity [32]: Non-toxic; LD50 [33]: > 1000 mg/kg
